Data on two compounds can be found in patent US20260137697A1, “THIAZOLO[5,4-D]PYRIMIDINE COMPOUNDS, COMPOSITIONS COMPRISING THEM AND USES THEREOF” (University de Montreal, priority 2022, published 2026).

The subject of test [1] is pERK, HCT116 cells. Nature of the test: Phospho-ERK inhibition, AlphaLISA p-ERK 1/2, HCT-116. It counts as cell-based, human. Particulars: Table 3; for IC50: HCT116 cells (KRAS G13D), 1 h treatment; for HCT116 pERK (Ymin %): lowest % inhibition value of the pERK IC50 curve, above −20% = no paradoxical induction. The method, boiled down:
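Cells in RPMI-1640 with 5% FBS plated overnight, then treated 1 h with ten-point dilutions (10 μM to 0.33 nM, 0.5% DMSO). Lysate p-ERK1/2 (Thr202/Tyr204) read by AlphaLISA SureFire Ultra; % inhibition normalised to DMSO and 1 μM trametinib background, IC50 by four-parameter fit.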
For orientation: In Alpha technology, singlet oxygen from a donor bead excites a nearby acceptor bead.

Test [2] relates to A101D cells. Nature of the test: Proliferation inhibition, CellTiter-Glo, A101D. As to conditions: Table D-1; A101D (BRAF V600E), 3 days; read-out: Prolif. (proliferation EC50). Type of test: cell-based, human. As for the experimental part: All cancer cell lines (A375, A101D, A2058, RKO, HT29 SK-MEL 30, IPC298, HepG2, HCT-116, Lovo, SW620, SW480, NCI-H358, NCI-H2122, Calu-6, NCIH2087, NCIH1755, NCIH1666 and Mewo) were obtained from ATCC and cultured in RPM1-1640 medium (Gibco) supplemented with 5% heat inactivated fetal bovine serum (FBS, Wisent) at 37° C. under 5% CO2. Cells were maintained in T175 flasks (Greiner). They were passaged by removing the culture medium, washing once in 10 mL of room temperature Phosphate Buffered Saline (PBS; Wisent) and incubating at 37° C. with 2 mL of 0.05% Trypsin (Thermo-Fisher). […]
After 3 days of incubation, the growth media were removed by aspiration and 60 μL of diluted CellTiter-Glo® reagent (10 μL CellTiter-Glo® reagent+50 μL of PBS) was added to each well. […] Luminescence signals were then acquired on a Synergy Neo2 plate reader (Biotek).
The effect of each compound dilution on the proliferation of cancer cell lines was expressed in % inhibition and calculated as follows. […]
The ability of each compound to inhibit proliferation was expressed as a EC50 value obtained by plotting the effect values for each data point of a dilution series and fitting the obtained curves using a log(agonist) versus response—variable slope (four parameters) function using GraphPadPrism (V7.0) or Dotmatics Screening Ultra platform.

In general, IC50 refers to the concentration that inhibits the measured activity by half. Read a high IC50 as lower potency. Turning to `Cc1c(F)cccc1S(=O)(=O)Nc1ccc(F)c(Nc2ncnc3sc(-n4cc(C(=O)N5C6CCC5CN(C)C6)c5ccccc54)nc23)c1F` [Example 44], in test [1], the IC50 was below 500 nM and the “HCT116 pERK (Ymin %)” value is recorded as 3%. Besides, in test [2], the EC50 was below 300 nM.
Consider `N#CC1(c2cccc3c2ncn3-c2nc3c(Nc4c(F)ccc(NS(=O)(=O)c5cccc(Cl)c5Cl)c4F)ncnc3s2)CC1` [Example 122], for which, in test [1], the IC50 is below 500 nM and the “HCT116 pERK (Ymin %)” value turned out to be 2%. Besides, the EC50 in test [2] was below 300 nM.
